Results from article PMC11259703, “A small-molecule allele-selective transcriptional inhibitor of the MIF immune susceptibility locus” (The Journal of Biological Chemistry, 2024).

Legend:
ICBP90 (UHRF1) = target: T1, ICBP90 (UHRF1) (Homo sapiens, UniProt Q96T88); test: AlphaScreen inhibition of purified ICBP90 SRA domain binding to biotinylated MIF promoter CATT8 DNA; confirmed by EMSA dose response
T1 construct: SET and RING finger-associated (SRA) domain, amino acids 413 to 618 (ICBP90^413-618), C-terminal 6xHis
T1 sequence (Q96T88 413-618): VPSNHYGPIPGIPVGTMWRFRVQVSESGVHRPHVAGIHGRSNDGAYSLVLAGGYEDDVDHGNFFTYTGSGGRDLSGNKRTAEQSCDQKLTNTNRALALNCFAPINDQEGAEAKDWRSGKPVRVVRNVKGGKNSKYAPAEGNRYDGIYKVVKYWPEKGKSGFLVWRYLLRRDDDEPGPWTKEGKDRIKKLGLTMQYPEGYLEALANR

[1] = test system: ICBP90 413-618 (SRA domain); test: AlphaScreen; settings: IC50 of the small-molecule inhibitor CMFT, not a DNA affinity; EMSA: LightShift kit buffer, poly(dI-dC), 20 min at 22 C, 6% native PAGE; ELISA: 10 mM Tris-HCl pH 7.5, 50 mM KCl, 1 mM DTT; AlphaScreen: same plus 0.01% …

| Molecule | IC50 (ICBP90 (UHRF1)) | IC50 [1] |
| --- | --- | --- |
| COC(=O)c1ccc(O)c2nc3c(C=O)c(O)cc(O)c3nc12 [compound 3, 1-carbomethoxy-5-formyl-4,6,8-trihydroxyphenazine] | 0.49 µM |  |
| MIF promoter CATT8 (-794 CATT8), 5'-biotin |  | 0.49 µM |
